# Source: the NIST ThermoML archive (doi:10.1021/acs.jced.8b00566)
# Numbers after ± are expanded uncertainties.
# Experiments:
# [1] = Crystal; DSC
# [2] = Molar enthalpy of transition or fusion; settings: Crystal; DSC
Triple point temperature [1] [K],Molar enthalpy of transition or fusion [2] [kcal/mol],SMILES
419.3 ± 0.8,6.17 ± 0.239,CC(=O)O[C@H]1CC[C@@]2(C)C(=CC[C@@H]3[C@@H]2CC[C@]2(C)C(c4cccnc4)=CC[C@@H]32)C1 [abiraterone acetate]
501.4 ± 0.8,10.8 ± 0.287,C[C@]12CC[C@H](O)CC1=CC[C@@H]1[C@@H]2CC[C@]2(C)C(c3cccnc3)=CC[C@@H]12 [abiraterone]
